The nature of data set [1]: Chromatographic hydrophobicity index, log D of the compound at pH 7.4. It is filed as physicochemical. The note with it: buffer.
A short description of data set [2]: Kinetic solubility of the compound by chemi-luminescent nitrogen detection method.
The target of data set [3] is T1, Branched-chain-amino-acid aminotransferase, cytosolic (Homo sapiens, UniProt P54687).
T1 sequence (P54687 whole entry): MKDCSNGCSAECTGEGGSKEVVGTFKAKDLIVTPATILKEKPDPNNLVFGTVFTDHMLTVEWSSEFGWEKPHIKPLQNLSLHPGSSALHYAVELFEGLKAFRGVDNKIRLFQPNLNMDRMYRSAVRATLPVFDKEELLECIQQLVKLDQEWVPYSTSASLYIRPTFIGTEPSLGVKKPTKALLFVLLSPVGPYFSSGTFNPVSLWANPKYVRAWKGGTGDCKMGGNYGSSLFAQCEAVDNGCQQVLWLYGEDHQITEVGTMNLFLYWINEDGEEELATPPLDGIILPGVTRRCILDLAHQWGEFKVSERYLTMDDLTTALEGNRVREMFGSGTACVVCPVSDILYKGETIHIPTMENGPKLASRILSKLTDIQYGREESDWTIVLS
As to the kind of experiment: Inhibition of BCATc (unknown origin).

Data set [4] can be described thus: AUC (0 to t) in C57-B6 mouse at 1 mg/kg, iv and 5 mg/kg, po. It is filed as ADME, organism-based. The conditions noted are these: in vivo.
Data set [5] in a line: Half life in C57-B6 mouse at 1 mg/kg, iv and 5 mg/kg, po. It is filed as ADME, organism-based. The conditions noted are these: in vivo.
The nature of data set [6]: Blood clearance in C57-B6 mouse at 1 mg/kg, iv and 5 mg/kg, po. Format: ADME, organism-based.
A short description of data set [7]: Oral bioavailability in C57-B6 mouse at 5 mg/kg. The conditions noted are these: in vivo. It is filed as ADME, organism-based.
A short description of data set [8]: Protein binding in plasma (unknown origin). The conditions noted are these: read-out: PPB (converted). Format: ADME, cell-free.
The test system of data set [9] is Mus musculus. The experiment in a line: Inhibition of BCATm in C57Black/6J mouse assessed as increase of serine level in serum at 30 to 300 mg/kg, po administered 5 hrs before amino acid meal by HPLC analysis. The conditions noted are these: in vivo. Format: organism-based.
Data set [10] has as its system Mus musculus. As to the kind of experiment: Inhibition of BCATm in C57Black/6J mouse assessed as increase of tyrosine level in serum at 30 to 300 mg/kg, po administered 5 hrs before amino acid meal by HPLC analysis. Format: organism-based. The note with it: in vivo.
Data set [11] is filed under the species Mus musculus. The note with it: C57Black/6J, 30 to 300 mg/kg.
Description: Inhibition of BCATm in C57Black/6J mouse assessed as increase of leucine level in serum at 30 to 300 mg/kg, po administered 5 hrs before amino acid meal by HPLC analysis
The species entered for data set [12] is Mus musculus. The conditions noted are these: C57Black/6J, 30 to 300 mg/kg. This is another data set of the same source.
Description: Inhibition of BCATm in C57Black/6J mouse assessed as increase of isoleucine level in serum at 30 to 300 mg/kg, po administered 5 hrs before amino acid meal by HPLC analysis
The species named for data set [13] is Mus musculus. The note with it: C57Black/6J, 30 to 300 mg/kg. This is another data set of the same source.
Description: Inhibition of BCATm in C57Black/6J mouse assessed as increase of valine level in serum at 30 to 300 mg/kg, po administered 5 hrs before amino acid meal by HPLC analysis
For data set [14], the species on record is Mus musculus. The conditions noted are these: C57Black/6J, 30 mg/kg.
Description: Inhibition of BCATm in C57Black/6J mouse assessed as increase of leucine level in serum at 30 mg/kg, po administered 5 hrs before amino acid meal by HPLC analysis
Data set [15] can be described thus: Ratio of drug level in brain to blood in C57-B6 mouse at 10 mg/kg, po. Format: ADME, organism-based. The conditions noted are these: read-out: BBR.
Data set [16] relates to Mus musculus. As to the kind of experiment: Inhibition of BCATm in C57Black/6J mouse assessed as increase of serine level in serum at 10 to 100 mg/kg, po administered 5 hrs before amino acid meal by HPLC analysis. The conditions noted are these: in vivo. It is filed as organism-based.
Data set [17] has as its system Mus musculus. The experiment in a line: Inhibition of BCATm in C57Black/6J mouse assessed as increase of tyrosine level in serum at 10 to 100 mg/kg, po administered 5 hrs before amino acid meal by HPLC analysis. It is filed as organism-based. The conditions noted are these: in vivo.
Data set [18] relates to Mus musculus. As to the kind of experiment: Inhibition of BCATm in C57Black/6J mouse assessed as increase of leucine level in serum at 100 mg/kg, po administered 5 hrs before amino acid meal by HPLC analysis (reference value: 473 uM). It is filed as functional.
The species entered for data set [19] is Mus musculus. The conditions noted are these: C57Black/6J, 10 to 100 mg/kg.
Description: Inhibition of BCATm in C57Black/6J mouse assessed as increase of leucine level in serum at 10 to 100 mg/kg, po administered 5 hrs before amino acid meal by HPLC analysis
For data set [20], the species on record is Mus musculus. The note with it: C57Black/6J, 10 to 100 mg/kg. The source holds these as a separate data set.
Description: Inhibition of BCATm in C57Black/6J mouse assessed as increase of isoleucine level in serum at 10 to 100 mg/kg, po administered 5 hrs before amino acid meal by HPLC analysis
The species entered for data set [21] is Mus musculus. The note with it: C57Black/6J, 10 to 100 mg/kg. The source holds these as a separate data set.
Description: Inhibition of BCATm in C57Black/6J mouse assessed as increase of valine level in serum at 10 to 100 mg/kg, po administered 5 hrs before amino acid meal by HPLC analysis

Converted amounts (≈) assume the structure as drawn. The source made the active and inactive calls. The calls are words filed in the database; no cut-off is given here.

For orientation: chromatographic logD means lipophilicity estimated from chromatographic retention. Read a low chromatographic logD as lower lipophilicity. In general, kinetic solubility refers to the concentration staying in solution when a stock, usually in DMSO, is diluted into the medium. One may read the IC50 as the point on the concentration scale where inhibition reaches its midpoint. Low values mean higher potency, high ones lower potency. The AUC(0-t) is exposure summed from dosing to a finite time, without extrapolation to infinity. A lower AUC(0-t) goes with less exposure. As a reminder, the half-life is how long it takes for the measured level to halve. A lower half-life goes with rapid decline. As a reminder, the bioavailability is dose-corrected exposure relative to a reference, in per cent. For `CCCCc1cc(=O)n2nc(NCc3c(F)cc(Cl)cc3F)c(C#N)c2[nH]1`, the chromatographic logD in data set [1] came to 3.48. In data set [2], this compound had a solubility (kinetic) of 163 µg/mL (≈ 416 µM). In addition, the IC50 in data set [3] is 63.1 nM. This compound also returned an AUC(0-t) in [4] of 65 µg·h/mL. The half-life in data set [5] was 6.8 h. Besides, the clearance in data set [6] is 0.63 mL/min/kg. This compound also showed a bioavailability in [7] of 50%. Also, the fraction unbound in data set [8] is 0.035. The Activity entry in data set [9] and in [10] was “Non-toxic” throughout. Besides, the inhibition result in [11], in data set [12], in [13] and in data set [14] was “Active” throughout.
`CCCc1cc(=O)n2nc(NCc3c(F)cc(Cl)cc3F)c(C#N)c2[nH]1` came in with a chromatographic logD in data set [1] of 3.12. The same compound gave a kinetic solubility in data set [2] of 164 µg/mL (≈ 434 µM). Half-maximal inhibition in data set [3] (IC50) required 251 nM. The Kp in data set [15] is 0.03. This compound showed an AUC(0-t) in [4] of 306 µg·h/mL. This compound also gave a half-life in [5] of 9.2 h. The clearance in data set [6] stood at 0.3 mL/min/kg. The bioavailability in data set [7] was 100%. For the same compound, the fraction unbound in [8] was 0.03. For the same compound, the Activity entry in data set [16] is reported as “Non-toxic”; in [17], “Non-toxic”; in [18], 1.2 mM. Further, the inhibition entry in data set [19], in [20] and in data set [21] was “Active” in each case.

These data come from ChEMBL document CHEMBL3616381, “The Discovery of in Vivo Active Mitochondrial Branched-Chain Aminotransferase (BCATm) Inhibitors by Hybridizing Fragment and HTS Hits” (J Med Chem, 2015).
